Series [1] concerns the target DNA polymerase subunit gamma-1/gamma-2 (Homo sapiens) (UniProt P54098+Q9UHN1). Kind of series: Inhibition of human mitochondrial DNA polymerase gamma large subunit/DNA polymerase gamma accessory subunit using 32P-D19/D36 as DNA primer/template assessed as single nucleotide incorporation rate at 100 uM after 5 to 90 mins by PAGE analysis relative to thymidine NTP. The class given is protein assay.

The target in series [2] is DNA-directed RNA polymerase, mitochondrial (Homo sapiens) (UniProt O00411). As to the kind of experiment: Inhibition of human mitochondrial RNA polymerase using 5'-32P-R12/D18 as RNA/DNA template assessed as single nucleotide incorporation rate at 500 uM after 0.17 to 30 mins by PAGE analysis.
Series [3] can be described thus: Inhibition of RSV A2 RNA-dependent RNA polymerase expressed in human Hep2 cells using ATP, GTP, UTP, CTP and 1.5 uCi [alpha-32P] NTP as substrate assessed as reduction of total radiolabled transcript after 90 mins by agarose gel electrophoresis. Conditions: hep-2. Further details: species or system Human respiratory syncytial virus A2.
The nature of series [4]: Antiviral activity against RSV A2 infected in human Hep2 cells assessed as protection against virus-induced cytopathic effect after 4 days by Cell-Titer Glo assay. Conditions: human respiratory syncytial virus, HEp-2, 96 h. The class given is functional, cell-based.
Series [5] is described as follows: Cytotoxicity against human MT4 cells assessed as cell viability after 5 days by Cell-Titer Glo assay. The class given is cell-based.

18 compounds from ChEMBL document CHEMBL3425402, “Discovery of β-D-2'-deoxy-2'-α-fluoro-4'-α-cyano-5-aza-7,9-dideaza adenosine as a potent nucleoside inhibitor of respiratory syncytial virus with excellent selectivity over mitochondrial RNA and DNA polymerases” (Bioorg Med Chem Lett, 2015) can be followed below.

Each structure is given as a SMILES string.

DNA-directed RNA polymerase, mitochondrial (Homo sapiens), sequence (O00411 whole entry): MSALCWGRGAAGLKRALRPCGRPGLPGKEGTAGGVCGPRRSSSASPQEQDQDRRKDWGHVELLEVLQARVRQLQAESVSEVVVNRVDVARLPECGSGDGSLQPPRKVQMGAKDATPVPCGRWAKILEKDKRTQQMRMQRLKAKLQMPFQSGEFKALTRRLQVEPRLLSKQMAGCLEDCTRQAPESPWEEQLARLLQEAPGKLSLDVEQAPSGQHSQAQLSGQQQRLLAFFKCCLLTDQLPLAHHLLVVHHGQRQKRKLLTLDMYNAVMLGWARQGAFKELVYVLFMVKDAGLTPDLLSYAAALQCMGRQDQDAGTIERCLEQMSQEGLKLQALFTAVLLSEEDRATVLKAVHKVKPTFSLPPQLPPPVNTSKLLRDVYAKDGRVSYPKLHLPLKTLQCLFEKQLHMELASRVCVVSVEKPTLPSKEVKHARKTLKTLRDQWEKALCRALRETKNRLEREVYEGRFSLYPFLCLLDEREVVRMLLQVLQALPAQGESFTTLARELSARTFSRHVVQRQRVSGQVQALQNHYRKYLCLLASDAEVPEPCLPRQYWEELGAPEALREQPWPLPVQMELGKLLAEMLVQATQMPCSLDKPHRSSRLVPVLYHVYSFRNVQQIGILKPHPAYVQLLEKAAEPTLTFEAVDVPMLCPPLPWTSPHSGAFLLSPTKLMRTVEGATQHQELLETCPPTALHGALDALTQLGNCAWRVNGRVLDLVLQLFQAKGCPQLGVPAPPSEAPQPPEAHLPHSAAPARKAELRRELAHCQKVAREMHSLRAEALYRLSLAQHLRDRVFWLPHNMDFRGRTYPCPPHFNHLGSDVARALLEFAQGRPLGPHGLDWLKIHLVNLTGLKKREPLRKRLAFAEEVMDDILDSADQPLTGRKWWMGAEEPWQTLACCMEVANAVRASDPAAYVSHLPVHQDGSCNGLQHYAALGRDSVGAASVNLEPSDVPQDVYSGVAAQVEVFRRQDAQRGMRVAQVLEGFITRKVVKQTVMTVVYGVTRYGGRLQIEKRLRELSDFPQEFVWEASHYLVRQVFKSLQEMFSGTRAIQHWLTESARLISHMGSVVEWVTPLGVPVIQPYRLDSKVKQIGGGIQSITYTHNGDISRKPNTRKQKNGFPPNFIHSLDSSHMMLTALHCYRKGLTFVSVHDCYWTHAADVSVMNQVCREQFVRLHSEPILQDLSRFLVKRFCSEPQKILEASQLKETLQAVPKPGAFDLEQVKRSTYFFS
DNA polymerase subunit gamma-1/gamma-2 (Homo sapiens), sequence (P54098 whole entry, looked up): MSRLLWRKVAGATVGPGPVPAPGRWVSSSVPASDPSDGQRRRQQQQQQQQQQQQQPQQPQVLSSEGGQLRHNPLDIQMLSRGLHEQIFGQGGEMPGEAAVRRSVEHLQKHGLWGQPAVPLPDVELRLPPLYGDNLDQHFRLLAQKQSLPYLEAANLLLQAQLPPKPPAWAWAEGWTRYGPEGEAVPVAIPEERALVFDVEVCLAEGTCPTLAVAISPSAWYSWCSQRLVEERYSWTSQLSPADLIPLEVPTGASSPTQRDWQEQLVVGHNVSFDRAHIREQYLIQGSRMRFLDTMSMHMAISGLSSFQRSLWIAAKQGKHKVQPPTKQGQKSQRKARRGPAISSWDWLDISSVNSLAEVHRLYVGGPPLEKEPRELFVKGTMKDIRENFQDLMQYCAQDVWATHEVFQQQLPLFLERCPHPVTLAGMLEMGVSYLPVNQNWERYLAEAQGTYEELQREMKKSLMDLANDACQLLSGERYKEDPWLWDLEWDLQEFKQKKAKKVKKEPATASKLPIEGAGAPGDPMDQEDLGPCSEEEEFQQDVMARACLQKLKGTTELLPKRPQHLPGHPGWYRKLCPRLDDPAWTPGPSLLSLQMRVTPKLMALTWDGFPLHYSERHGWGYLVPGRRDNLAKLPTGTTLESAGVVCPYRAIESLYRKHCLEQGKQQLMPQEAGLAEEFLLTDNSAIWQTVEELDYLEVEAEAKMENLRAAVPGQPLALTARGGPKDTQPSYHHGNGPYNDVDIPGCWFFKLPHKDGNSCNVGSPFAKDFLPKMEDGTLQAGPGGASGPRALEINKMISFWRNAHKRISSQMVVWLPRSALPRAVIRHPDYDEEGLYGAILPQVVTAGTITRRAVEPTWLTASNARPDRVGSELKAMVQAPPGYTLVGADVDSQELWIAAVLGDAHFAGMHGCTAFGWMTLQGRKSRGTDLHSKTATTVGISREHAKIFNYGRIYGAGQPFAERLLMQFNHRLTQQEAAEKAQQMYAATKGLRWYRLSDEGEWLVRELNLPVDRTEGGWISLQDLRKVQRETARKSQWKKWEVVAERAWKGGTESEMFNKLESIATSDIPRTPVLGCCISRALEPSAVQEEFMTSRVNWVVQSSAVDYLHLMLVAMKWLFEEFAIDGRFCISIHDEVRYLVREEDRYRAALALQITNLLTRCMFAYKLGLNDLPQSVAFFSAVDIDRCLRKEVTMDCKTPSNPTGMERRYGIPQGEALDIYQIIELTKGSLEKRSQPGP
DNA polymerase subunit gamma-1/gamma-2 (Homo sapiens), sequence (Q9UHN1 whole entry, looked up): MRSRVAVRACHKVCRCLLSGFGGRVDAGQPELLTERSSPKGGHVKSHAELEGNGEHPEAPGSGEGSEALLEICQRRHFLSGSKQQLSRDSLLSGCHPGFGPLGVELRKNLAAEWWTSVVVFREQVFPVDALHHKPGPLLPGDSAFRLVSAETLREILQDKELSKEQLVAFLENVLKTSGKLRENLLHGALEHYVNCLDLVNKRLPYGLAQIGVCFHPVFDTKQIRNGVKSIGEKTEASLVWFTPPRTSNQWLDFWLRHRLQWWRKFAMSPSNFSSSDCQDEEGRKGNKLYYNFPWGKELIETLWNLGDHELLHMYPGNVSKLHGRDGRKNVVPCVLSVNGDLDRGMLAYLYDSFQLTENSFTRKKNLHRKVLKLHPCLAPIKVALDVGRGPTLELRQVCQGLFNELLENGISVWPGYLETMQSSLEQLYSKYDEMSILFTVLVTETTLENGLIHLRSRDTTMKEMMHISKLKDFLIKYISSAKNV

`[N-]=[N+]=N[C@]1(CO)O[C@@H](n2ccc(N)nc2=O)[C@H](F)[C@@H]1O`: the inhibition (in general, the relative decrease from the control value, in per cent) in series [1] amounted to 7%; in series [2], 3%. Besides, the IC50 (commonly the concentration that gives 50% inhibition) in series [3] was 300 nM. For the same compound, the EC50 (commonly the concentration needed to bring the measured effect to its halfway point) in series [4] worked out at 3.5 µM. The CC50 – broadly, the concentration that lowers cell viability or growth by half – at 120 h in series [5] was found to be 23 µM.

As to `N#C[C@]1(CO)O[C@@H](c2ccc3c(N)ncnn23)[C@H](F)[C@@H]1O`, the inhibition in series [1] and in series [2] was under 0.1% in each case. Also, in series [3], the IC50 was found to be 86 nM. The EC50 in series [4] amounted to 2 µM. For the same compound, the CC50 at 120 h in series [5] is over 114 µM.

Consider `N#C[C@]1(CO)O[C@@H](n2cnc3c(=O)[nH]c(N)nc32)[C@H](F)[C@@H]1O`, for which the inhibition amounted to 3% in series [1] and 0% in series [2]. Besides, the IC50 in series [3] worked out at 2600 nM. Further, the EC50 in series [4] was found to be 10 µM. For the same compound, the CC50 at 120 h in series [5] is 24 µM.

For `O=c1[nH]c(=O)n([C@@H]2O[C@H](CO)[C@@H](O)[C@@H]2F)cc1I`, the inhibition in series [1] was 99%.

Take `C#C[C@]1(CO)O[C@@H](n2cnc3c(=O)[nH]c(N)nc32)[C@H](F)[C@@H]1O`: the inhibition turned out to be 5% in series [1] and 18% in series [2]. Further, the IC50 in series [3] came out at 1800 nM. Moreover, the EC50 in series [4] is 26 µM. Further, the CC50 at 120 h in series [5] was 39 µM.

`C=C[C@]1(CO)O[C@@H](n2cnc3c(=O)[nH]c(N)nc32)[C@H](F)[C@@H]1O`: the inhibition in series [1] and in series [2] was 1% throughout. In addition, the IC50 in series [3] was 12000 nM. Also, the EC50 in series [4] came to 17 µM. Further, the CC50 at 120 h in series [5] came out at 46 µM.

`CC[C@]1(CO)O[C@@H](n2ccc(N)nc2=O)[C@H](F)[C@@H]1O`: the values for the inhibition in series [1] and in series [2] were 6% and 0%, respectively. In addition, in series [3], the IC50 came out at 600 nM. Besides, in series [4], the EC50 is 8 µM. The CC50 at 120 h in series [5] is over 57 µM.

As for `CC(C)C(=O)OC[C@@]1(N=[N+]=[N-])O[C@@H](n2ccc(N)nc2=O)[C@H](OC(=O)C(C)C)[C@@H]1OC(=O)C(C)C`, the inhibition in series [2] came to 112%.

As for `Nc1ccn([C@@H]2O[C@H](CO)[C@@H](O)[C@H]2F)c(=O)n1`, the inhibition amounted to 17% in series [1] and 20% in series [2]. Moreover, the IC50 in series [3] stood at 1800 nM. The EC50 in series [4] is over 200 µM. In addition, in series [5], the CC50 at 120 h is 3.8 µM.

Take `Nc1ncnn2c([C@@H]3O[C@H](CO)[C@@H](O)[C@H]3F)ccc12`: the results for the inhibition in series [1] and in series [2] were 2.5% and 22%, respectively. Further, in series [3], the IC50 was 600 nM. The EC50 in series [4] is over 100 µM. Also, the cytotoxic concentration (CC50) at 120 h in series [5] is 26 µM.

Take `C=C[C@]1(CO)O[C@@H](n2ccc(N)nc2=O)[C@H](F)[C@@H]1O`: the inhibition is 4.9% in series [1] and 1.2% in series [2]. Besides, the IC50 in series [3] turned out to be 600 nM. For the same compound, the EC50 in series [4] was over 50 µM. Besides, the CC50 at 120 h in series [5] was over 57 µM.

In the case of `CC[C@]1(CO)O[C@@H](c2ccc3c(N)ncnn23)[C@H](F)[C@@H]1O`, the inhibition in series [1] was found to be 5.7%; in series [2] it was 0.1%. Moreover, the IC50 in series [3] worked out at 500 nM. Also, in series [4], the EC50 was 41 µM. Moreover, the CC50 at 120 h in series [5] was over 114 µM.

Consider `O=c1ccn([C@@H]2O[C@H](CO)[C@@H](O)[C@H]2F)c(=O)[nH]1`, for which the inhibition in series [1] is 11%; in series [2], 37%. In series [3], the IC50 was 3500 nM. Moreover, in series [4], the half-maximal effective concentration (EC50) was over 100 µM.

For the compound `Nc1nc(O)c2ncn([C@@H]3O[C@H](CO)[C@@H](O)[C@H]3F)c2n1`, the inhibition in series [1] came out at 34%; in series [2], 21%. In addition, the IC50 in series [3] is 6600 nM. In series [4], the EC50 is over 200 µM.

Regarding `Nc1ncnc2c1ncn2[C@@H]1O[C@H](CO)[C@@H](O)[C@H]1F` [2'-BETA-FLUORO-2',3'-DEOXYADENOSINE], the inhibition is 8% in series [1] and 24% in series [2]. The IC50 in series [3] worked out at 7700 nM. Besides, the EC50 in series [4] is over 50 µM.

With `Nc1nc2c(ncn2[C@@H]2O[C@H](CO)[C@@H](O)[C@H]2F)c(=O)[nH]1`, the CC50 at 120 h in series [5] is over 49 µM.

On to `C=C[C@]1(CO)O[C@@H](c2ccc3c(N)ncnn23)[C@H](F)[C@@H]1O`, for which the results for the inhibition in series [1] and in series [2] were 10% and 2.9%, respectively. Moreover, the IC50 in series [3] is 600 nM. In addition, the EC50 in series [4] worked out at 10 µM. Further, the CC50 at 120 h in series [5] was over 114 µM.

Turning to `Nc1ccn([C@@H]2O[C@@](CO)(CCl)[C@@H](O)[C@H]2F)c(=O)n1` [ALS-8112], the inhibition in series [1] came to 41%; in series [2], 0%. In addition, the IC50 in series [3] came out at 1000 nM. Besides, the 50% effective concentration (EC50) in series [4] came out at 0.92 µM. Further, the CC50 at 120 h in series [5] was 21 µM.
